Article PMC10316653 (iScience, 2023)
Where two headings read alike, the source gives them in different places. One block for each molecule: values may come before it.

Key:
A2BAR [1] = molecular target: T1, A2BAR (Homo sapiens, UniProt P29275); test: cAMP accumulation assay in naive HEK293 cells; format: cell-based
T1 sequence (P29275 1-332): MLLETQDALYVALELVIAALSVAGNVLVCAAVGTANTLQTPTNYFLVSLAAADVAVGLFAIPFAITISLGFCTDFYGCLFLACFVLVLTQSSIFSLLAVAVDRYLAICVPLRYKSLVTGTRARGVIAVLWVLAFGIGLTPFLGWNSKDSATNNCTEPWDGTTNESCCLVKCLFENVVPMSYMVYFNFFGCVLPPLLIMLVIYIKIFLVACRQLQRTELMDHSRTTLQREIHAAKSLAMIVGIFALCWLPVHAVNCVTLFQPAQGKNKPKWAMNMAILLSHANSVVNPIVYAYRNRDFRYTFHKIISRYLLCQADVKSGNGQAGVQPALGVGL

A2BAR [2] = molecular target: T1, A2BAR; test: cAMP accumulation assay in HEK293-A2B cells; format: cell-based; settings: for effect on PKC-induced A2BAR activation (cAMP): inhibitor 20 min before PMA (Figure 10C)
H9C2 cells = test: Intracellular calcium mobilization assay in H9C2 cells; format: cell-based, rat
A2BAR [3] = molecular target: T1, A2BAR; test: cAMP accumulation in Gi-null HEK293-A2B cells; format: cell-based; settings: read-out: Emax of cAMP accumulation (10 μM forskolin in HEK293-A2B = 100%)
recombinant rat A2BAR = molecular target: T2, recombinant rat A2BAR (Rattus norvegicus, UniProt P29276); test: cAMP accumulation in H9C2 cells expressing the recombinant rat A2BAR; format: cell-based; settings: H9C2 cells with rat A2BAR expression, 0.3 μg/well
T2 sequence (P29276 1-332): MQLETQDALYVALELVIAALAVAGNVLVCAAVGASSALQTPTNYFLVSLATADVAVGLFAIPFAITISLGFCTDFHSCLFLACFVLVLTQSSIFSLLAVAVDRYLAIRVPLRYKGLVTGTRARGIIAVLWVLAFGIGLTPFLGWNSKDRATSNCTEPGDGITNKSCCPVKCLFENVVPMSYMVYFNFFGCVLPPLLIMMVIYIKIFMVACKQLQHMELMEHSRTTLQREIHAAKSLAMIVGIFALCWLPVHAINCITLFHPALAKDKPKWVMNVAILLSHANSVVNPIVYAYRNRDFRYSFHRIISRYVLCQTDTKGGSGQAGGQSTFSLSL

adenylyl cyclase = test: Forskolin-stimulated cAMP accumulation in H9C2 cells; format: cell-based, rat; settings: PMA 1 μM 40 min, forskolin 10 μM
A2BAR [4] = molecular target: T1, A2BAR; test: Radioligand binding to membranes from HEK293-A2B cells
A2BAR [5] = molecular target: T3, A2BAR (Mus musculus, UniProt Q60614); test: cAMP accumulation in NIH3T3 cells endogenously expressing the A2BAR; format: cell-based; settings: 20 min
T3 sequence (Q60614 1-332): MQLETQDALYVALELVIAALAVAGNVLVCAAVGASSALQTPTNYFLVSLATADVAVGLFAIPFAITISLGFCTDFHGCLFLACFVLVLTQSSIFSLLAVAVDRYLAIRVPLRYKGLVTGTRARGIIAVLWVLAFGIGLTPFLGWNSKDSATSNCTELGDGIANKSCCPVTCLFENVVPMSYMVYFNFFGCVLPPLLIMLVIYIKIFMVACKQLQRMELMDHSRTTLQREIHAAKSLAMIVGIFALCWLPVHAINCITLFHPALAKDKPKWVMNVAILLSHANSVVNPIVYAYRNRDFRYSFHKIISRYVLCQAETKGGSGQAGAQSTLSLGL

A2BAR [6] = molecular target: T1, A2BAR; test: cAMP accumulation in Gi-null HEK293 cells; format: cell-based; settings: PMA 1 μM 40 min
ERK1/2 = ERK1/2 activity assay in H9C2 cells; format: cell-based, rat; settings: for effect on PMA-induced ERK1/2 phosphorylation: 1 μM added 20 min before PMA 1 μM
A2BAR [7] = molecular target: T1, A2BAR; test: Intracellular calcium mobilization assay in HEK293-A2B cells; format: cell-based
A2BAR [8] = molecular target: T1, A2BAR; format: cell-based
A2BAR [9] = molecular target: T4, A2BAR (Rattus norvegicus, UniProt P29276); test: cAMP accumulation assay in H9C2 cells endogenously expressing the A2BAR; format: cell-based
T4 sequence (P29276 1-332): T2 sequence (P29276 1-332)

A1AR = molecular target: T5, A1AR (Rattus norvegicus, UniProt P25099); test: A1AR-mediated inhibition of forskolin-stimulated cAMP accumulation in H9C2 cells; format: cell-based
T5 sequence (P25099 1-326): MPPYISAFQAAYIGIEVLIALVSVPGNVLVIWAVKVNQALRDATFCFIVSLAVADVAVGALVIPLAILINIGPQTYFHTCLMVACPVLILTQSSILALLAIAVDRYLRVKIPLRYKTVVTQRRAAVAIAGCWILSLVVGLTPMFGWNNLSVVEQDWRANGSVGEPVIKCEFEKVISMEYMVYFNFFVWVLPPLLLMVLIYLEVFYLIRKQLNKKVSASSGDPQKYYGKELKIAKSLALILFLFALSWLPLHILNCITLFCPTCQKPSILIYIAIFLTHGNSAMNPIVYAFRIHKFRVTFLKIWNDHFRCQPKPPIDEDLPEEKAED

PKCδ = settings: reported selectivity profile, ref not given; cited from earlier work
PKCθ = settings: reported selectivity profile, ref not given; cited from earlier work
[10] = naive HEK293 cells, inhibitor 1 μM, PMA 1 μM, BAY 10 μM
[11] = HEK293-A2B cells treated with PMA 1 μM 40 min

remaining enhancement (A2BAR [1]; naive HEK293 cells, in the presence of 1 μM GF109203X): 26% | effect on PKC (PMA)-induced enhancement of BAY-induced cAMP accumulation (A2BAR [1]; [10]): blocked PKC-induced enhancement | inhibition of PKC-induced enhancement of BAY-induced cAMP accumulation (A2BAR [1]; [10]): 74% | effect on PKC-induced A2BAR activation (cAMP) (A2BAR [2]; HEK293-A2B cells): significantly inhibited
SMILES: CN(C)CCCn1cc(C2=C(c3c[nH]c4ccccc34)C(=O)NC2=O)c2ccccc21 [GF109203X]

SMILES: CCNC(=O)[C@H]1O[C@@H](n2cnc3c(N)ncnc32)[C@H](O)[C@@H]1O [NECA, adenosine-5′-N-ethyluronamide]
induction of calcium mobilization (H9C2 cells): did not induce calcium mobilization

SMILES: CCCCCCCCCCCCCC(=O)O[C@@H]1[C@@H](C)[C@@]2(O)[C@@H](C=C(CO)C[C@]3(O)C(=O)C(C)=C[C@@H]23)[C@@H]2C(C)(C)[C@]12OC(C)=O [PMA, phorbol 12-myristate 13-acetate]
Emax (A2BAR [1]; HEK293, read-out: maximal stimulation relative to Emax of NECA): < 10% | maximal agonist effect (10 μM NECA = 100%) (A2BAR [1]; naive HEK293 cells, 20 min (Figure 7D)): 7.36 ± 1.08% | enhancement of the function of BAY (cAMP accumulation) (A2BAR [1]; wild-type HEK293 cells, PMA 1 μM 40 min): 95% | inhibition of UTP-induced calcium response (H9C2 cells; 1 μM pretreatment 20 min): completely inhibited | EC50 (A2BAR [2]; EC50, cAMP accumulation, HEK293-A2B cells, incubated 60 min): 56.4 nM | effect of pretreatment on NECA- or BAY-induced cAMP accumulation (A2BAR [2]; HEK293-A2B cells, PMA 40 min): raised the basal cAMP level but not the Emax | Emax (A2BAR [2]; read-out: activation Emax (Emax of NECA = 100%)): 84.7% | Emax (A2BAR [3]): 19.3 ± 3.1% | maximal cAMP level (10 μM NECA = 100%) (recombinant rat A2BAR): 65.4 ± 8.0% | effect of pretreatment on forskolin-stimulated cAMP accumulation (adenylyl cyclase): did not inhibit or enhance | effect of treatment on agonist [3H]NECA binding (A2BAR [4]; [11]): significantly increased agonist binding | effect of treatment on antagonist [3H]DPCPX binding (A2BAR [4]; [11]): did not affect | displacement of specific binding of [3H]NECA (25 nM) (A2BAR [4]; membranes from HEK293-A2B cells, 1 μM): 1.6 ± 1.2% | cAMP accumulation versus NECA = 100% (A2BAR [5]): 34.9 ± 7.7% | enhancement of the function of BAY (cAMP accumulation) (A2BAR [6]): 37% | ERK1/2 phosphorylation (ERK1/2; PMA 1 μM, sustained over 30 min): > 300 % above baseline | induction of calcium mobilization (A2BAR [7]): did not induce calcium mobilization | effect on NECA-induced intracellular calcium mobilization (A2BAR [7]; 1 μM pretreatment 20 min): inhibited | Emax (A2BAR [8]; HEK293, read-out: Emax of cAMP accumulation (10 μM forskolin = 100%)): 49.3 ± 4.6% | maximal agonist effect (10 μM NECA = 100%) (A2BAR [8]; HEK293 cells with recombinant human A2BAR expression, 0.3 μg/well): 35.5 ± 5.0% | enhancement of A2BAR agonist-induced cAMP accumulation (A2BAR [9]; H9C2 cells, PMA 1 nM pretreatment 40 min): 25% | Emax of cAMP accumulation relative to NECA (A2BAR [9]; naive H9C2 cells, 5 min (Figure S10)): about 20 % of NECA | maximal cAMP level (10 μM NECA = 100%) (A2BAR [9]; naive H9C2 cells, 20 min (Figure 7C)): 20.0 ± 0.36% | EC50 (A2BAR [9]; potency of enhancing effect on A2BAR-mediated cAMP accumulation, H9C2 cells): ~1 nM

inhibited cAMP accumulation stimulated by forskolin (A1AR; 1 μM, forskolin 10 μM): neither | inhibition of forskolin's effect on cAMP (A1AR; range of concentrations (Figure S1)): unable to inhibit forskolin’s effect
SMILES: OC1C(CCl)OC(n2cnc3c(NC4CC5CCC4C5)ncnc32)C1O (centres unmarked) [Cl-ENBA]

effect on PKC (PMA)-induced enhancement of BAY-induced cAMP accumulation (A2BAR [1]; [10]): did not significantly inhibit
SMILES: CC(C)[C@@](C)(O)[C@@H]1CN(c2nc(-c3[nH]nc4ncccc34)c(F)cc2Cl)CCN1 [VTX-27]
IC50 (PKCδ): 16 nM | IC50 (PKCθ): 0.08 nM

effect of pretreatment on A2BAR (NECA)-mediated cAMP accumulation (A2BAR [2]; HEK293-A2B cells, 1 μM, 20 min before NECA): did not show any effect
SMILES: CSc1nc(N)c2ncn([C@H]3[C@H](O)[C@H](O)[C@]4(COP(=O)([O-])OP(=O)([O-])[O-])C[C@H]34)c2n1.[Na+].[Na+].[Na+] [MRS2365, [[(1R,2R,3S,4R,5S)-4-[6-amino-2-(methylthio)-9H-purin-9-yl]-2,3-dihydroxybicyclo[3.1.0]hex-1-yl]methyl] diphosphoric acid monoester trisodium salt]

effect on PKC (PMA)-induced enhancement of BAY-induced cAMP accumulation (A2BAR [1]; [10]): blocked PKC-induced enhancement | effect on PKC-induced A2BAR activation (cAMP) (A2BAR [2]; HEK293-A2B cells): significantly inhibited | effect on PMA inhibition of NECA-induced calcium mobilization (A2BAR [7]; GO6983 1 μM before PMA 1 μM): completely blocked
SMILES: COc1ccc2c(c1)c(C1=C(c3c[nH]c4ccccc34)C(=O)NC1=O)cn2CCCN(C)C [GO6983]
effect on PMA inhibition of UTP calcium response (H9C2 cells; GO6983 1 μM 20 min before PMA 1 μM): completely reversed | effect on PKC- and NECA-induced cAMP accumulation (A2BAR [2]; HEK293-A2B cells, GO6983 1 μM): blocked PKC- but not NECA-induced cAMP accumulation | effect on PMA-induced ERK1/2 phosphorylation (ERK1/2): diminished | effect on BAY-induced cAMP accumulation (A2BAR [9]; H9C2 cells, 1 μM, no PMA): did not affect BAY-induced cAMP accumulation

effect on PMA enhancement of cAMP accumulation (A2BAR [1]; HEK293 cells, H89 10 μM, PMA 1 μM): unaffected
SMILES: O=S(=O)(NCCNC/C=C/c1ccc(Br)cc1)c1cccc2cnccc12 [H89]
effect on PMA-induced ERK1/2 phosphorylation (ERK1/2): not affected
